The text below walks through data of PubChem BioAssay AID1259407 (Chemical Carcinogenesis Research Information System (CCRIS), 2018).

This series has as its system CCRIS mutagenicity, Ames/micronucleus/aberration tests. Nature of the series: CCRIS mutagenicity studies.
[1] abbreviates: Test System: AMES SALMONELLA TYPHIMURIUM, Strain/Indicator: TA100, Metabolic Activation: NONE, Method: STANDARD PLATE.
Where [2] appears, read: Test System: AMES SALMONELLA TYPHIMURIUM, Strain/Indicator: TA102, Metabolic Activation: NONE, Method: STANDARD PLATE.
[3] abbreviates: Test System: AMES SALMONELLA TYPHIMURIUM, Strain/Indicator: TA98, Metabolic Activation: NONE, Method: STANDARD PLATE.
Setting [4] is: Test System: AMES SALMONELLA TYPHIMURIUM, Strain/Indicator: TA1535, Metabolic Activation: NONE, Method: STANDARD PLATE.
The mark [5] stands for this setting: Test System: AMES SALMONELLA TYPHIMURIUM, Strain/Indicator: TA1537, Metabolic Activation: NONE, Method: STANDARD PLATE.

Molecules are shown by their SMILES. Calls of active or inactive are those of the source. The rule behind the calls is not given here.

For `CCN(CC)Cc1cc(Nc2ccnc3cc(Cl)ccc23)ccc1O`, the mutagenic call (Test System: AMES SALMONELLA TYPHIMURIUM, Strain/Indicator: TA97A, Metabolic Activation: NONE, Method: STANDARD PLATE) is “inactive; negative”; the mutagenic call (Test System: AMES SALMONELLA TYPHIMURIUM, Strain/Indicator: TA97A, Metabolic Activation: RAT LIVER S-9, PHENOBARBITAL, Method: STANDARD PLATE) is “inactive; negative”; the mutagenic call under setting [1] is “inactive; negative”; the mutagenic call (Test System: AMES SALMONELLA TYPHIMURIUM, Strain/Indicator: TA100, Metabolic Activation: RAT LIVER S-9, PHENOBARBITAL, Method: STANDARD PLATE) is “inactive; negative”; the mutagenic call under setting [2] was “inactive; negative”; the mutagenic call (Test System: AMES SALMONELLA TYPHIMURIUM, Strain/Indicator: TA102, Metabolic Activation: RAT LIVER S-9, PHENOBARBITAL, Method: STANDARD PLATE) was “inactive; negative”. Also, the mutagenic call is “inactive; negative” (Test System: AMES SALMONELLA TYPHIMURIUM, Strain/Indicator: TA104, Metabolic Activation: NONE, Method: STANDARD PLATE) and “inactive; negative” (Test System: AMES SALMONELLA TYPHIMURIUM, Strain/Indicator: TA104, Metabolic Activation: RAT LIVER S-9, PHENOBARBITAL, Method: STANDARD PLATE).

Turning to `ClC[C@H](Br)CBr`, the mutagenic call (Test System: AMES SALMONELLA TYPHIMURIUM, Strain/Indicator: TA100, Metabolic Activation: RAT, LIVER, MICROSOMES, Method: PREINCUBATION) was “active; positive”.

On to `N/C(=N\O)c1ccc([N+](=O)[O-])o1`, for which the mutagenic call under setting [1] is “active; positive”.

As to `FC(F)(F)C(F)(F)C(Cl)Cl`, the mutagenic call is “inactive; negative” under setting [3]; “inactive; negative” (Test System: AMES SALMONELLA TYPHIMURIUM, Strain/Indicator: TA98, Metabolic Activation: RAT LIVER S-9, PHENOBARBITAL, 5,6-BENZOFLAVONE, Method: STANDARD PLATE); “inactive; negative” under setting [1]; “inactive; negative” (Test System: AMES SALMONELLA TYPHIMURIUM, Strain/Indicator: TA100, Metabolic Activation: RAT LIVER S-9, PHENOBARBITAL, 5,6-BENZOFLAVONE, Method: STANDARD PLATE); “inactive; negative” under setting [4]; “inactive; negative” (Test System: AMES SALMONELLA TYPHIMURIUM, Strain/Indicator: TA1535, Metabolic Activation: RAT LIVER S-9, PHENOBARBITAL, 5,6-BENZOFLAVONE, Method: STANDARD PLATE). In addition, the mutagenic call reads like this: under setting [5], “inactive; negative”; (Test System: AMES SALMONELLA TYPHIMURIUM, Strain/Indicator: TA1537, Metabolic Activation: RAT LIVER S-9, PHENOBARBITAL, 5,6-BENZOFLAVONE, Method: STANDARD PLATE) “inactive; negative”; (Test System: ESCHERICHIA COLI, Strain/Indicator: WP2 UVR A, Metabolic Activation: NONE, Method: STANDARD PLATE) “inactive; negative”; (Test System: ESCHERICHIA COLI, Strain/Indicator: WP2 UVR A, Metabolic Activation: RAT LIVER S-9, PHENOBARBITAL, 5,6-BENZOFLAVONE, Method: STANDARD PLATE) “inactive; negative”; (Test System: UDS RAT HEPATOCYTES IN VIVO, Strain/Indicator: THYMIDINE INCORPORATION, Metabolic Activation: NONE, Method: INHALATION (6HR, NOSE-ONLY, 2-OR 16-HR HARVEST)/AUTORADIOGRAPHY) “inactive; negative”.

For the compound `CCCCCCCC(O)C=CC=O` (stereo unspecified), the mutagenic call runs as follows: (End Point: IN VITRO CHROMOSOMAL ABERRATIONS, Test System: RAT HEPATOCYTES, Metabolic Activation: NONE) “active; positive”; (End Point: IN VITRO MICRONUCLEUS, Test System: RAT HEPATOCYTES, Metabolic Activation: NONE) “inactive; negative”.

`CC1CCCO1` (stereo unspecified): the mutagenic call reads like this: (Test System: AMES SALMONELLA TYPHIMURIUM, Strain/Indicator: TA98, Metabolic Activation: HAMSTER LIVER S-9, AROCLOR 1254, Method: STANDARD PLATE) “inactive; negative”; under setting [3], “inactive; negative”; (Test System: AMES SALMONELLA TYPHIMURIUM, Strain/Indicator: TA98, Metabolic Activation: RAT LIVER S-9, AROCLOR 1254, Method: STANDARD PLATE) “inactive; negative”; (Test System: AMES SALMONELLA TYPHIMURIUM, Strain/Indicator: TA100, Metabolic Activation: HAMSTER LIVER S-9, AROCLOR 1254, Method: STANDARD PLATE) “inactive; negative”; under setting [1], “inactive; negative”; (Test System: AMES SALMONELLA TYPHIMURIUM, Strain/Indicator: TA100, Metabolic Activation: RAT LIVER S-9, AROCLOR 1254, Method: STANDARD PLATE) “inactive; negative”. Moreover, the mutagenic call was “inactive; negative” (Test System: AMES SALMONELLA TYPHIMURIUM, Strain/Indicator: TA102, Metabolic Activation: HAMSTER LIVER S-9, AROCLOR 1254, Method: STANDARD PLATE); “inactive; negative” under setting [2]; “inactive; negative” (Test System: AMES SALMONELLA TYPHIMURIUM, Strain/Indicator: TA102, Metabolic Activation: RAT LIVER S-9, AROCLOR 1254, Method: STANDARD PLATE); “inactive; negative” (Test System: AMES SALMONELLA TYPHIMURIUM, Strain/Indicator: TA1535, Metabolic Activation: HAMSTER LIVER S-9, AROCLOR 1254, Method: STANDARD PLATE); “inactive; negative” under setting [4]; “inactive; negative” (Test System: AMES SALMONELLA TYPHIMURIUM, Strain/Indicator: TA1535, Metabolic Activation: RAT LIVER S-9, AROCLOR 1254, Method: STANDARD PLATE). For the same compound, the mutagenic call by setting is: (Test System: AMES SALMONELLA TYPHIMURIUM, Strain/Indicator: TA1537, Metabolic Activation: HAMSTER LIVER S-9, AROCLOR 1254, Method: STANDARD PLATE) “inactive; negative”; under setting [5], “inactive; negative”; (Test System: AMES SALMONELLA TYPHIMURIUM, Strain/Indicator: TA1537, Metabolic Activation: RAT LIVER S-9, AROCLOR 1254, Method: STANDARD PLATE) “inactive; negative”; (Test System: Mouse lymphoma, Strain/Indicator: L5178Y (tk+/tk-), Metabolic Activation: None, Method: Suspension/plate) “inactive; negative”; (Test System: Mouse lymphoma, Strain/Indicator: L5178Y (tk+/tk-), Metabolic Activation: Rat, Liver, S-9, Aroclor 1254, Method: Suspension/plate) “inactive; inconclusive (previous evaluation negative)”.

Regarding `CCOc1ccc(NC(=O)CC(C)O)cc1` (stereo unspecified), the mutagenic call runs as follows: (Test System: AMES SALMONELLA TYPHIMURIUM, Strain/Indicator: TA100, Metabolic Activation: HAMSTER, LIVER, S-9, KANECHLOR 400, Method: PREINCUBATION) “active; positive”; (Test System: AMES SALMONELLA TYPHIMURIUM, Strain/Indicator: TA100, Metabolic Activation: HAMSTER, LIVER, S-9, Method: PREINCUBATION) “inactive; negative”; (Test System: AMES SALMONELLA TYPHIMURIUM, Strain/Indicator: TA100, Metabolic Activation: RAT, LIVER, S-9, KANECHLOR 400, Method: PREINCUBATION) “inactive; negative”; (Test System: AMES SALMONELLA TYPHIMURIUM, Strain/Indicator: TA100, Metabolic Activation: RAT, LIVER, S-9, Method: PREINCUBATION) “inactive; negative”.

Turning to `O[C@H]1[C@H](O)COC(NCCc2c[nH]c3ccccc23)[C@@H]1O` (stereo partly specified), under “Test System: AMES SALMONELLA TYPHIMURIUM, Strain/Indicator: TA100, Metabolic Activation: NONE, Method: LIQUID INCUBATION”, the mutagenic call was “active; positive”.

For the compound `C[C@H](Br)C(=O)NCc1ccccc1`, the mutagenic call under setting [1] was “active; positive”.
